# Assay results published in paper PMC4704819, “Honey Bee Allatostatins Target Galanin/Somatostatin-Like Receptors and Modulate Learning: A Conserved Function?” (PLoS ONE, 2016).
# “Also recorded” adds a separate entry of the source. Where a SMILES comes first, the peptide text is derived from it. Bridges are numbered along the chain shown (N, C = ends).
# Target: T1, Apime-ASTC-R (Apis mellifera, UniProt A0A7M7GNE5)
# T1 sequence (A0A7M7GNE5 1-423): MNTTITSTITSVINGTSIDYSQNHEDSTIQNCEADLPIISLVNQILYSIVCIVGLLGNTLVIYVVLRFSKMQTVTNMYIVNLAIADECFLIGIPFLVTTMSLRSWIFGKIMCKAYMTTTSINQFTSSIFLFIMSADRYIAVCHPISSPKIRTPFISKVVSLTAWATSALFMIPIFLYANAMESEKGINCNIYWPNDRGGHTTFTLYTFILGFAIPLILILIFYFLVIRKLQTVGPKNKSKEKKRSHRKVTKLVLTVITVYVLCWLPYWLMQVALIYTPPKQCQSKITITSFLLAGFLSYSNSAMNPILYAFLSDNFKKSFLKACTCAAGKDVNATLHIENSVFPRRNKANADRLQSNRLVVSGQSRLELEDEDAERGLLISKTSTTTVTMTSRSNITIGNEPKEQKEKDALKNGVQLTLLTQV
# Assay: Intracellular cAMP reporter assay, HEK293 cells expressing Apime-ASTC-R
# Assay type: cell-based
# Conditions: CRE-luciferase, IBMX, 10^-14 to 10^-3 M, Fig 5D-E, ASTCC effect at high concentrations (>10 μM)
# Procedure: For intracellular cAMP measurements, cells were bathed in trypsin EDTA and collected, then suspended in fresh DMEM. Transfections with pRK5-ApimeAstC-R, pRK5-ApimeAstA-R or empty pRK5 vector were carried out in 15 ml Falcon tubes. Transfection medium for HEK293 cells was prepared using the Lipofectamine LTX kit (Invitrogen) with 2.5 ml Opti-MEM® (Gibco), 12.5 μl Plus™ Reagent and 4 μg of ApimeASTC-R (or ApimeASTA-R, or empty) expression construct, and 2 μg of CRE(6x)-Luc plasmid. The luciferase ORF, downstream of six tandem repeats of a cyclic AMP responsive element (CRE), in front of a minimum collate promoter, was used as a reporter gene (this reporter plasmid has been used by others)
# We followed a previousy published protocol: HEK293 cells in Dulbecco's Modified Eagles Medium nutrient mixture F12-Ham (DMEM/F12, Sigma–Aldrich) supplemented with 10% heat-inactivated fetal bovine serum (Gibco), 100 IU/ml penicillin, 100 μg/ml streptomycin (Gibco) were maintained in an incubator at 37°C with constant supply of 5% CO2, until they reached 60–80% confluence. Cells were then bathed in trypsin EDTA (Gibco) until rounded. The flask was then tapped to loosen the cells, which were subsequently washed off with 5 ml DMEM/F12. The cells were gently centrifuged at 800 rpm for 5 minutes and carefully suspended in fresh DMEM, which was divided in two for transfection with receptor constructs or empty vectors. After 5 min at room temperature, 30 μl LTX was added. After an incubation period of 30 min at room temperature, the DNA/LTX mix was added to the cells. The cells were then aliquoted (100 μl per well) into a clear bottom 96-well plate (Greiner bio-one #655090) and incubated overnight (37°C, 5% CO2).
# Prior to measuring cAMP, the cell medium was removed by carefully inverting the 96-well plate on filter paper and quickly replaced with 100 μl of DMEM/F12 without phenol red (Invitrogen), but containing 200 μM 3-isobutyl-1-methylxanthine (IBMX, Sigma–Aldrich) to prevent cAMP breakdown, as well as drugs to be tested. In each experiment, some wells were used to measure basal levels of cAMP in the cells (negative control), while others were used to measure cAMP levels in cells exposed to 10 μM forskolin analogue (NKH-477, Sigma Aldrich, positive control). […] All cells were incubated at 37°C and 5% CO2 for 3–4 h to allow transcription of the reporter gene before 100 μl of freshly reconstituted Steadylite Plus™ substrate (PerkinElmer) was added to each well. The 96-well plate was then placed in the dark for 15 min before light emission resulting from luciferase enzymatic activity was recorded. Measurements lasting 0.2 s/well were taken every 55 s for 10 cycles using a FLUOstar Omega microplate reader (BMG Labtech). Results were analyzed by means of the Omega software packages and further processed by Excel and GraphPad Prism softwares. In order to facilitate comparisons across experiments, bioluminescence levels are expressed relative to those in mock-transfected cells (transfected with the vector devoid of the receptor sequence) untreated with NKH-477, which were arbitrarily set at 100.
# To test this prediction, we expressed the two receptors separately in HEK293 cells together with the luciferase reporter gene, downstream of the cAMP response element, CRE, but without exogenous G proteins.
Structure (SMILES),"effect on cAMP levels (bioluminescence), in words","effect on cAMP levels (bioluminescence), in words (listed as ASTCC)","effect on cAMP levels (bioluminescence), in words (listed as ASTC)"
CC(C)[C@@H]1NC(=O)[C@H](C)NC(=O)[C@H](CC(N)=O)NC(=O)[C@H](Cc2ccccc2)NC(=O)[C@H](Cc2ccc(O)cc2)NC(=O)[C@@H](NC(=O)[C@H](CCCNC(=N)N)NC(=O)[C@H](Cc2c[nH]c3ccccc23)NC(=O)[C@H](Cc2ccc(O)cc2)NC(=O)[C@@H](NC(=O)[C@H](CCCNC(=N)N)NC(=O)CNC(=O)[C@H](CCCCN)NC(=O)[C@H](C)NC(=O)[C@H](CCC(N)=O)NC(=O)CN)C(C)C)CSSC[C@@H](C(=O)N[C@@H](Cc2ccccc2)C(=O)O)NC(=O)[C@H]([C@@H](C)O)NC1=O [Apime-ASTCC] (H-GQAKGRVYWRCYFNAVTCF-OH; disulfide 11-18; N-terminus assumed),increased bioluminescence levels at high concentrations; also recorded: small increase in intracellular cAMP,increased cAMP levels in the cells slightly,–
CC(C)[C@@H]1NC(=O)[C@H](C)NC(=O)[C@H](CC(N)=O)NC(=O)[C@H](Cc2ccccc2)NC(=O)[C@H](C)NC(=O)[C@@H](NC(=O)[C@H](CCC(N)=O)NC(=O)[C@H](CCCCN)NC(=O)[C@H](Cc2c[nH]c3ccccc23)NC(=O)[C@H](Cc2ccc(O)cc2)NC(=O)[C@@H](N)CO)CSSC[C@@H](C(=O)N[C@@H](Cc2ccccc2)C(N)=O)NC(=O)[C@H](CO)NC1=O [Apime-ASTC] (H-SYWKQCAFNAVSCF-NH2; disulfide 6-13; N-terminus assumed),did not change the bioluminescence levels,–,failed to increase intracellular cAMP levels
